# Reference: patent US10933076B2, “Crocin-sorafenib combination therapy for liver cancer” (United Arab Emirates University, priority 2019, dated 2021)
# How the values were obtained:
# Format in all cases: in vivo, male Wistar rats
# DEN-induced HCC [1] = experiment: Macroscopic appearance of liver and number of lesions/nodules in DEN-induced HCC rats
# Procedure: (§1) In this study, 4 weeks old male Wistar rats were used. The rats were randomly divided into two groups; Control group (n=8) which received 1× PBS via intraperitoneal (i.p.) injection; Experimental group which were injected with DEN at 50 mg/kg b. wt. (Sigma Aldrich, USA) dissolved in PBS once a week for 16 weeks via i.p. This HCC induction protocol was modified from the protocol described by (DePeralta et al., 2016; Schiffer et al., 2005).
# (§2) All drugs were orally administered with intragastric (gavage) tube. Doses and route of administration followed what was been previously reported in the literature.
# (§3) For the HCC+sorafenib group, sorafenib (Carbosynth Limited) was administered at a dose of 10 mg/kg b.wt. […] A 0.3% solution of DMSO was used to dissolve the sorafenib. […] At the end of the experimental period and after a 24-hour post last drug administration, animals were euthanized using Diethyl ether and sacrificed and dissected under controlled conditions. Blood and liver tissue samples were collected and stored either at room temperature in buffered formalin for histological analysis or at −80 C in PBS for biochemical and immunoblotting analyses.
# DEN-induced HCC [2] = experiment: Liver enzymes (ALT, AST) in serum of DEN-induced HCC rats, colorimetric assay
# Procedure: as §1, §2, §3
# DEN-induced HCC [3] = experiment: Histopathological evaluation of liver (H&E) in DEN-induced HCC rats; conditions: HCC groups (FIG. 10)
# Procedure: as §1, §2, §3
# reticulin network = experiment: Reticulin staining of liver sections in DEN-induced HCC rats; conditions: in comparison to HCC groups (FIG. 5)
# Procedure: as §1, §2, §3
# PCNA = experiment: Western blot of PCNA in livers of DEN-induced HCC rats; conditions: liver, versus HCC; P<0.01 (FIG. 6)
# Procedure: as §1, §2
# For the HCC+sorafenib group, sorafenib (Carbosynth Limited) was administered at a dose of 10 mg/kg b.wt. […]
# Liver tissue samples (10 mg) were homogenized in cold RIPA buffer (Sigma Aldrich, USA) 2 μl of protease inhibitor and of phosphatases inhibitor were added to the homogenizing buffer (Sigma Aldrich, USA). Protein concentration of each liver sample was determined using the Bradford method (Bio-Rad, Hercules, Calif.) with the Promega GloMax Discover. […] Variations of gel percentages were used according to the size of protein to be determined. […] Protein bands were then detected using a chemiluminescence solution known as WesternSure PREMIUM, the signal was detected and visualized using the Bio-Rad ChemiDoc XRS+ System. The intensity of the band was measured using the ImageJ software. […]
# [4] = test system: intrinsic apoptotic pathway; experiment: Western blot of intrinsic apoptotic pathway proteins (Bax, Bcl-2, PARP, pro-caspase-3, pro-caspase-9) in livers of DEN-induced HCC rats
# Procedure: as §1, §2, §3
# Liver tissue samples (10 mg) were homogenized in cold RIPA buffer (Sigma Aldrich, USA) 2 μl of protease inhibitor and of phosphatases inhibitor were added to the homogenizing buffer (Sigma Aldrich, USA). Protein concentration of each liver sample was determined using the Bradford method (Bio-Rad, Hercules, Calif.) with the Promega GloMax Discover. In order to blot the proteins into the gel, 2-mercaptoethanol, […], was added to the cell lysate produced from the homogenization of liver tissues. The mixture of the lysate and loading dye was then loaded into the SDS-PAGE gel. Variations of gel percentages were used according to the size of protein to be determined. Following the separation of the protein content of each sample on the SDS-PAGE gel, proteins were transferred onto a PVDF membrane and blocked in 5% BSA in TBST or a 5% (w/v) non-fat milk at room temperature for one hour. After the blocking stage, the membranes were incubated with primary anti-body overnight at 4° C. In this study, the primary antibodies selected here were anti-Proliferating Cell Nuclear Antigen (PCNA), anti-caspase-3 (Cell Signaling Technology Inc.), anti-caspase-9 (Nous Biologicals), anti-PolyADP-ribose Polymerase (PARP), anti-Bcl-2, anti-Bax (Santa Cruz). Following the overnight incubation with primary antibodies, the membranes were extensively washed with TBST and re-probed with secondary antibodies including anti-rabbit IgG (Cell Signaling Technology, Inc, MA, USA) and anti-mouse IgG, and conjugated horseradish peroxidase for 1 hour at room temperature. Protein bands were then detected using a chemiluminescence solution known as WesternSure PREMIUM, the signal was detected and visualized using the Bio-Rad ChemiDoc XRS+ System. The intensity of the band was measured using the ImageJ software. The internal control used was total protein which was stained using the SYPRO Ruby protein gel stain following the protocol instructed by the manufacturer (Thermo Fisher Scientific).
# Housekeeping proteins are used as the controls for every western blot analysis. Because of their stable expression in tissues, they are great indicators to validate the integrity of the protein samples loaded into the SDS-PAGE gel, therefore accurately reflecting the amount of proteins in the samples. Current research has investigated the ability of these housekeeping proteins to remain stable under different experimental conditions. […] Therefore, an alternative approach was used to resolve this issue. Total protein was utilized as the loading control; this protocol measures the whole protein content of a sample rather than relying on one protein.
# [5] = liver, compared to the HCC group alone, P<0.01 (FIG. 8)
# [6] = liver, compared to the HCC group, P<0.05 (FIG. 9)
smiles,measurement,setting,value
"CC(/C=C/C=C(\C)C(=O)O[C@@H]1O[C@H](CO[C@@H]2O[C@H](CO)[C@@H](O)[C@H](O)[C@H]2O)[C@@H](O)[C@H](O)[C@H]1O)=C\C=C\C=C(C)\C=C\C=C(/C)C(=O)O[C@@H]1O[C@H](CO[C@@H]2O[C@H](CO)[C@@H](O)[C@H](O)[C@H]2O)[C@@H](O)[C@H](O)[C@H]1O [crocin, Crocetin di-gentiobiose ester]",number of liver lesions,DEN-induced HCC [1]; in comparison to the HCC animals (FIG. 4),reduced the number of lesions
same,number of liver lesions,DEN-induced HCC [1]; in comparison to the livers of sorafenib alone (HCC+SB) (FIG. 4),significantly lower numbers of lesions
same,levels of ALT and AST in the blood,DEN-induced HCC [2]; in comparison to DEN-induced HCC rats (FIG. 11),great impact on lowering the levels of both ALT and AST
same,level of ALT in serum,"DEN-induced HCC [2]; in comparison to the HCC group, crocin 200 mg/kg b.wt., sorafenib 10 mg/kg b.wt., oral gavage 5 times a week, week 17 to 19, P<0.01",decrease in the level of ALT
same,level of ALT in serum,"DEN-induced HCC [2]; in comparison to the sorafenib alone group (HCC+sorafenib), P<0.05",significantly decreased levels of ALT
same,architecture of the liver (H&E histology),DEN-induced HCC [3],restored to a great degree the normal architecture of the liver
same,reticulin network / fiber breakage,reticulin network,recovered the damage done by the DEN-induction of cancer
same,expression of PCNA,PCNA,significantly lowered the expression of PCNA
same,expression of PARP,"[4]; liver, compared to the HCC group alone, P<0.001 (FIG. 8)",decreased
same,expression of pro-caspase-3,[4]; [5],decreased
same,expression of pro-caspase-9,[4]; [5],decreased
same,expression of anti-apoptotic protein Bcl-2,[4]; [6],significantly (P<0.05) decreased
same,expression of pro-apoptotic protein Bax,[4]; [6],increasing the expression
same,activation of the intrinsic apoptotic pathway,"[4]; western blot analysis (FIGS. 7, 8, 9)",triggered the activation of the intrinsic apoptotic pathway
